{"source": "ChEMBL document CHEMBL1145761", "about": "(Bioorg Med Chem Lett, 2003)", "biological_target": "Neuronal acetylcholine receptor; alpha4/beta2 (Rattus norvegicus, UniProt P09483+P12390)", "sequence (P09483 whole entry)": "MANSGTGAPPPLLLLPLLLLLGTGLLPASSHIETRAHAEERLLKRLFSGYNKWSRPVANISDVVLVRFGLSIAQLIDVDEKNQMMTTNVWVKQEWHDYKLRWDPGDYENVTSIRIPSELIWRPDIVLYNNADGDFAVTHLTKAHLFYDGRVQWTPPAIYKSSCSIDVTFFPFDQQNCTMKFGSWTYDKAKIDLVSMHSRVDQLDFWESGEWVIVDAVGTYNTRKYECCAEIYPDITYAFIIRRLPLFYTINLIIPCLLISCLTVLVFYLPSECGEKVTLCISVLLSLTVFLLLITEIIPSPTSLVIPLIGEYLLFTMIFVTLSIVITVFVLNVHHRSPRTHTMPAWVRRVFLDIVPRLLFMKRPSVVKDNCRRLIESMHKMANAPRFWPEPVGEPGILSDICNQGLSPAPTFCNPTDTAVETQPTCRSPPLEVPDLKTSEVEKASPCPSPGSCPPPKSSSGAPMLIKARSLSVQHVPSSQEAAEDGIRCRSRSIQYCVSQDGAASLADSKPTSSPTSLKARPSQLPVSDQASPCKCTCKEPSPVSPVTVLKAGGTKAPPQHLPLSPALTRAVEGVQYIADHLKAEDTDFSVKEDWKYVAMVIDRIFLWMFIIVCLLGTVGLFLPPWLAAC", "sequence (P12390 whole entry)": "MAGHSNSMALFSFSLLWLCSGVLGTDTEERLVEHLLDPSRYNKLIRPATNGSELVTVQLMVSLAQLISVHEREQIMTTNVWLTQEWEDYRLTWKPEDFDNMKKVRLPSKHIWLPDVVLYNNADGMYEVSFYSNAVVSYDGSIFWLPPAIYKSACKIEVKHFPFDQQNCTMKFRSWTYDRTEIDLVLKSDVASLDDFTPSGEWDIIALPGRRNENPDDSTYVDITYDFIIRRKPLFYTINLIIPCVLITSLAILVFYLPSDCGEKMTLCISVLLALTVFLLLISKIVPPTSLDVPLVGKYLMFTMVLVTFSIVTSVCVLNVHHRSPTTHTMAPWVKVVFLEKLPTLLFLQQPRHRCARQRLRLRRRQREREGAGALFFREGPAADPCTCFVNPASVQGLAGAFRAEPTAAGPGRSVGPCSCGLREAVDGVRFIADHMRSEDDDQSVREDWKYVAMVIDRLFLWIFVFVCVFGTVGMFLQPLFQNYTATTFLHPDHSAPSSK", "assay": "Affinity at alpha4-beta2 nACh receptors in rat brain (minus cerebellum) homogenates.", "assay_type": "tissue-based"}
{"compound": "CN1CCCC1c1cnc2ccccc2c1", "note": "(stereo unspecified)", "values": [{"measurement": "Ki", "value": 0.011, "unit": "µM"}]}
{"compound": "CN1CCN=C1Cc1cnc2ccccc2c1", "values": [{"measurement": "Ki", "value": 0.038, "unit": "µM"}]}
{"compound": "c1ccc(CN2CCCC2c2cccnc2)cc1", "note": "(stereo unspecified)", "values": [{"measurement": "Ki", "value": 0.36, "unit": "µM"}]}
{"compound": "COc1ccc(CC2=NCCN2C)cn1", "values": [{"measurement": "Ki", "value": 0.046, "unit": "µM"}]}
{"compound": "CN1CCN=C1Cc1ccc(Br)nc1", "values": [{"measurement": "Ki", "value": 0.0073, "unit": "µM"}]}
{"compound": "CN1CCN=C1Cc1ccc(Cl)nc1", "values": [{"measurement": "Ki", "value": 0.0033, "unit": "µM"}]}
{"compound": "CN1CCCC1c1ccc(-c2ccccc2)nc1", "note": "(stereo unspecified)", "values": [{"measurement": "Ki", "value": 9.44, "unit": "µM"}]}
{"compound": "CN1CCN=C1Cc1ccc(-c2ccccc2)nc1", "values": [{"measurement": "Ki", "value": 3.26, "unit": "µM"}]}
{"compound": "CN1CCCC1c1ccc(Br)nc1", "note": "(stereo unspecified)", "values": [{"measurement": "Ki", "value": 0.0005, "unit": "µM"}]}
{"compound": "CN1CCCC1c1ccc(Cl)nc1", "note": "(stereo unspecified)", "values": [{"measurement": "Ki", "value": 0.0006, "unit": "µM"}]}
{"compound": "c1cncc(C2=NCCC2)c1", "note": "[MYOSMINE]", "values": [{"measurement": "Ki", "value": 3.3, "unit": "µM"}]}
